Results taken from a melting point compilation (Tetko et al.; mined from patent text by program, amines drawn as free bases though some values may be those of a salt).

| Compound | melting point |
| --- | --- |
| c1cnc2ccc(Cn3nnc4ccc(-n5ccnc5)nc43)cc2c1 | 227 to 230 °C |
| O=C(O)c1cc(S(=O)(=O)NCCc2ccccc2Cl)ccc1Cl | 175 to 177 °C |
| Brc1ccn2nc(-c3ccccc3)nc2c1 | 189 to 191 °C |
| CC(=O)NCc1cc(C(C)=O)ccc1Cl | 93.1 to 93.7 °C |
| O=[N+]([O-])c1ccc(Br)cc1CS(=O)(=O)c1ccccc1 | 143 to 144 °C |
| ClCc1cnn(-c2ccc(Cl)c(Cl)c2)c1 | 66 to 67 °C |
| Oc1nc(Nc2ccc(O)c(Cl)c2)cc(-c2ccccc2)n1 | 280 to 282 °C |
| Clc1ccc(-c2nc(Cl)cc(NCCN3CCOCC3)n2)cc1 | 127 to 129 °C |
| CC(=O)N(C)c1csc(Br)n1 | 84 °C |
| O=c1[nH]cccc1CCCCCCCCCCCCc1ccc[nH]c1=O | 210 °C |
| COc1ccccc1COc1ccc(S(=O)(=O)c2ccc(C)nc2Nc2cc(OC)c(OC)cc2C)cc1 | 62 to 66 °C |
| COc1ccc(-c2cc(-c3ccccc3)c(-c3ccccc3)s2)cc1F | 118 to 122 °C |
| CC(=O)C1=C(O)C(=C(C)Nc2ccccc2Cl)C(=O)OC1=O | 143 to 145 °C |
| O=C(CSc1ccc(Cl)cc1)c1ccccc1 | 65 to 66 °C |
| O=C(O)C(CBr)(CBr)CBr | 83 to 86 °C |
| CC(=O)c1ccc(OCCOc2ccc3ccccc3c2)cc1C | 128 to 130 °C |
| Cc1csc(C(O)(c2nc(C)cs2)C(F)(F)F)n1 | 140 to 142 °C |
| Cc1ccc(-n2c(-c3sc(NC(=O)c4ccccc4)nc3-c3ccccc3)nc3ccccc3c2=O)cc1 | > 275 °C |
| CC(C)C(=O)N1C(=O)C2C=CC1C2 (stereo unspecified) | 41 to 42 °C |
| CC(C)(C)OC(=O)NC1COCCCC=CC2CC2(C(=O)NS(=O)(=O)C2CC2)NC(=O)C2CC(OC(=O)c3cccc(Oc4ccccc4)c3)CN2C1=O (stereo unspecified) | 123 to 125 °C |
| Cc1cc(SC(C)C)c(NC(=O)CCCSc2nc3ccccc3o2)c(SC(C)C)n1 | 128 to 129 °C |
| CCC(=NOCC=Cc1ccc(Br)cc1)C1=C(O)CC(C2CCCSC2)CC1=O (stereo unspecified) | 97 to 99 °C |
| CCOC(=O)c1nccn1C1C(=O)c2ccccc2N1C(C)=O (stereo unspecified) | 210 °C |
| O=C(Nc1cc(Cl)ccc1O)Nc1ccccc1C(F)(F)F | 183 to 184 °C |
| CC(C)Cn1c(CN2C(=O)c3ccccc3C2=O)c(-c2ccc(Cl)cc2)c2cc(OCc3ccccc3)ccc2c1=O | 182 to 183 °C |
| CCc1nn(-c2c(Cl)cc(C(F)(F)F)cc2Cl)c(CC)c1Cc1c(OC)ccc2ccccc12 | 96 to 98 °C |

| Compound | melting point |
| --- | --- |
| O=C(O)C1=Cc2cc(Cl)c(Oc3ccc(Cl)cc3)cc2OC1C(F)(F)F (stereo unspecified) | 205 to 206 °C |
| CC(C)[C@@H](NS(=O)(=O)c1ccc(-c2ccsc2)cc1)C(=O)O | 169 °C |
| O=[N+]([O-])C=C1CN=C(c2ccccc2)c2cc(Cl)ccc2N1 | 184 to 186 °C |
| O=c1ccoc2cc(O)ccc12 | 136 to 137 °C |
| COc1c(N2CC[C@@H](C3(NC(=O)OC(C)(C)C)CCC3)C2)ccc2c(=O)c(C(=O)O)cn([C@@H]3C[C@@H]3F)c12 | 174 °C |
| Cc1cc([N+](=O)[O-])ccc1OC1CCN(C(=O)OC(C)(C)C)CC1 | 82 to 83 °C |
| CC(C)(C)Sc1c(CC(C)(C)C(=O)O)n(Cc2ccc(Cl)cc2)c2ccc(OCc3cscn3)cc12 | 194 to 195 °C |
| CCCCc1nccc2ccc(C(=O)N[C@@H](Cc3cc(F)cc(F)c3)[C@H](O)CNCc3cccc(CC)c3)cc12 | 109 to 110 °C |
| O=C1c2ccccc2C(=O)N1C1CCCc2sccc21 (stereo unspecified) | 166 to 168 °C |
| COc1ccc(-c2csc(Nc3ccccn3)n2)cc1OC | 211 to 214 °C |
| O=C1O[C@@H](COc2cnsn2)CN1c1ccc(N2C[C@@H]3C[C@H]2CN3Cc2ccccc2)c(F)c1 | 97 to 98 °C |
| CCCN1CCC(O)(c2cc(F)cc(F)c2)C1 (stereo unspecified) | 117 to 118 °C |
| Nc1cc(Br)ccc1-c1ccccc1F | 40 to 42 °C |
| O=C1C(=O)N(C(c2ccccc2)c2ccccc2)c2cc(F)ccc21 | 167 to 169 °C |
| CCOC(=O)c1c(C(C)C)nc2onc(C)c2c1-c1ccc(F)cc1 | 90 to 110 °C |
| Nc1ccccc1C(=O)CCCO | 58 to 61 °C |
| COc1ccc(CNc2ncc[nH]2)cc1OC1CCCC1 | 114 to 115 °C |
| CCCn1c(=O)c2[nH]c(-c3cc(C)n(CC(=O)Nc4ccc(F)cc4)n3)nc2n(CCC)c1=O | 205 to 207 °C |
| CCn1c(=O)n(/C(C)=C\SC)c2ccccc21 | 74 °C |
| CC(C)(Cl)Cn1ncc(OCc2ccc(I)nc2)c(Cl)c1=O | 119 to 123 °C |
| CCOC(=O)c1cc2c(cc(C)n2OC)nc1C(=O)OCC | 94.5 to 96.5 °C |
| OCC1CC(O)C(n2cnc3c(-n4cccc4)ncnc32)O1 (stereo unspecified) | 175 to 176 °C |
| CCCOC1CC2(C)C(CCC3C2CCC2(C)C(C(=O)CSCCCO)CCC32)CC1O (stereo unspecified) | 133 to 136 °C |
| COc1ccc(OC)c2c1C[C@](O)(C(C)=O)CC21SCCS1 | 175 to 178 °C |
| Cn1c(C(=O)NC(CF)Cc2ccccc2)cc2c(O)cccc21 (stereo unspecified) | 161 to 162 °C |
| Cc1sc(S(=O)(=O)NC(C)(C)CO)cc1[N+](=O)[O-] | 118 °C |

| Compound | melting point |
| --- | --- |
| CCOP(=O)(OCC)C1(P(=O)(OCC)OCC)CC(C(=O)c2ccccc2[N+](=O)[O-])=NN1 | 111 to 112 °C |
| Oc1cc(Cl)ccc1Oc1ccccc1-c1ncon1 | 124 to 125 °C |
| Cc1nnc(C2=C(O)c3ccccc3S(=O)(=O)N2C)o1 | 226 to 227 °C |
| O=C(c1ccc(Cl)cc1)C(Br)c1ccc(Cl)cc1 (stereo unspecified) | 81.5 to 83 °C |
| COC(=O)c1ccc(Cl)c(CSC)c1SC | 47.1 °C |
| Cc1cc2ncnn2c(N2CCN(C)CC2)n1 | 95 to 98 °C |
| CC(=O)Nc1nc(Cl)c2ncn(COC(COC(C)C)COC(C)C)c2n1 | 106 °C |
| C1=CCC(Cc2ccc(-c3ccccc3)cc2)C1 | 47 to 48 °C |
| NS(=O)(=O)c1cc2c(s1)CNCC2 | 172 to 175 °C |
| COc1ccc(CCc2oc3ccc(Br)cc3c2C(C)=O)cc1 | 100 to 101 °C |
| COC(=O)c1c2n(c(C)cc1=O)CCCC2 | 169 to 172 °C |
| Cc1c(C)c2c(c(C)c1N)CC(C)(CN(C)C)O2 (stereo unspecified) | 66 to 67 °C |
| COc1ccc(-c2cc3ncc(SC)c(O)c3s2)cc1 | 283 to 287 °C |
| C=C(CO)C(C(=O)OC(c1ccccc1)c1ccccc1)N1C(=O)C2N=C(Cc3ccccc3)OC21 (stereo unspecified) | 40 to 55 °C |
| COC(=O)[C@H](C)NC(=O)CCn1cc(C2=C(c3cn(C)c4ccccc34)C(=O)NC2=O)c2ccccc21 | 142 to 149 °C |
| COC(=O)c1c(Cl)c(-c2cccc(C(F)(F)F)c2)nn1C | 97 to 98 °C |
| Cc1c(C)n(C2CC2)c2c(OCc3ccccc3)nncc12 | 121 to 122 °C |
| CN(C)C=C1CN=C(c2ccccc2Cl)c2ccccc2C1=O | 155 to 157 °C |
| CCCCCCCCCCCCCCCC1CCCC(c2ccc(O)cc2)(c2ccc(O)cc2)C1 (stereo unspecified) | 104 °C |
| CCCc1cc(OCC)c2c(c1OC)S(=O)(=O)N(CCl)C2=O | 131 to 133 °C |
| CCCCc1ccc(-c2ccc(CCc3ccc(F)cc3)cc2)c(F)c1 | 35 °C |
| CCn1c(COCc2ccccc2)nc(C(C)C)c1Sc1cccc([N+](=O)[O-])c1 | 121 to 123 °C |
| CSc1ccc2ncccc2c1N | 88.5 to 90.5 °C |
| O=C(NC1CCCCC1)N1C(=O)C2(CCCCC2)NC12CCCCC2 | 106 to 109 °C |
| CCCn1c(C)nc2cc(C(=O)O)ccc21 | > 260 °C |
| CCOC(=O)c1cc2n(c1)CN(C(=O)OCC)c1ccccc1-2 | 80 to 82 °C |

| Compound | melting point |
| --- | --- |
| CCOCc1nc2c(N)nc3ccccc3c2n1CC1(NC(=O)OCC)CCCCC1 | 95 to 100 °C |
| COc1ccc(S(=O)(=O)C2(C(=O)NO)CCN(Cc3ccccc3)CC2)cc1 | 90 to 95 °C |
| N#CN1CCC(C2c3ccccc3NN2c2ccccc2Cl)CC1 (stereo unspecified) | 109 to 111 °C |
| COc1ccc(C2=NN(Cc3ccncc3)C(=O)[C@H]3CCCC[C@@H]23)cc1OC (relative stereo) | 87 to 89 °C |
| CCOC(=S)CC/C(C)=C/Cc1c(OC)c(C)c2c(c1OC(C)=O)C(=O)OC2 | 81 to 84 °C |
| CN1CCC(=C2c3ccccc3C=Cc3ccc(C(=O)OCn4ccnc4)cc32)CC1 | 118 to 121 °C |
| Cc1cc(C)nc(NC(=O)NS(=O)(=O)c2csnc2Cl)n1 | 136 to 140 °C |
| CC(C)(F)c1cnn2c(-c3ccc(F)c(-c4c(F)cccc4C#N)c3)cnc2n1 | 187 to 188 °C |
| Cc1cc(O)cc2c1C(C)(C)CC2(C)C | 120 °C |
| CCCc1oc2ccc([N+](=O)[O-])cc2c1C(=O)c1ccc(O)cc1 | 119 °C |
| COc1cc(C(=O)c2nc(N)c3ccccn23)ccc1[N+](=O)[O-] | 214 °C |
| C[C@@H](NCC1COc2ccccc2N1)c1ccccc1 (stereo partly specified) | 91 to 92 °C |
| CCOC(=O)c1nc2n(n1)-c1sc(C)c(C)c1C(c1ccccc1)=NC2 | 173 to 174 °C |
| O=C(Nc1ccc2ccc(-c3ccc(Cl)cc3)nc2n1)c1cccc(Cl)c1 | 222 to 224 °C |
| O=C(O)Cn1c(=O)c(=O)[nH]c2cc([N+](=O)[O-])c(-n3ccc(CN4CCN(Cc5ccccc5)CC4)c3)cc21 | > 230 °C |
| Cc1ccc(S(=O)(=O)OCC2Cc3cccc(-c4cc(C(F)(F)F)cc(C(F)(F)F)c4)c3O2)cc1 (stereo unspecified) | 100 to 105 °C |
| CCOCC1(F)CCN(c2ccc(N3C[C@H](CNC(C)=O)OC3=O)cc2F)CC1 | 109 to 111 °C |
| CCOC(=O)/C=C/c1cnc(Cl)nc1 | 125 to 127 °C |
| O=C(O)C(CC(=O)N1CC2CC=CCC2C1)Cc1ccccc1 (stereo unspecified) | 128 to 132 °C |
| COc1ccc2c(c1)C=C(C(=O)NCCCCN1CCN(c3ccccc3OC)CC1)CO2 | 165 °C |
| Cc1cc(-c2cc(C(F)(F)F)n3ncc(-c4nc(-c5ccc(N)nc5)no4)c3n2)ccc1C(F)(F)F | 220 °C |
| COc1ccc(C2=NN(c3cccc(C(=O)N4CCOCC4)c3)C(=O)C(C)(C)C2)cc1OC | 108 to 109 °C |
| O=C1CCC(N2Cc3c(OCc4ccc(Cc5nc6ccccc6[nH]5)cc4)cccc3C2=O)C(=O)N1 (stereo unspecified) | 203 to 205 °C |
